Measured values: patent US20070128217A1 (priority 2003, published 2007)

Tests used:
[1] = tested on: antibodies in sera from SARS patients (sera 1a, 1b, 2, 6, 37, 62, London, SARS-yellow, SARS-green); assay type: binding, human; parameters: Binding of serum 6 to linear peptides of protein X1 of SARS-CoV Urbani / Binding of serum 37 to linear peptides of protein X1 of SARS-CoV Urbani / Binding of serum 6 to looped/cyclic peptide (PEPSCAN-ELISA) / Binding of serum 37 to looped/cyclic peptide (PEPSCAN-ELISA) / Binding of serum 37 to looped/cyclic peptides of protein X1 of SARS-CoV Urbani / Binding of serum 6 to linear peptides of protein X2 / Binding of serum 37 to linear peptides of protein X2 / Binding of serum 37 to looped/cyclic peptides of protein X2 of SARS-CoV Urbani / Binding of serum 6 to linear peptides of protein M of SARS-CoV Urbani / Binding of serum 37 to linear peptides of protein M of SARS-CoV Urbani / Binding of serum 6 to looped/cyclic peptides of protein M of SARS-CoV Urbani / Binding of serum 37 to looped/cyclic peptides of protein M of SARS-CoV Urbani / Binding of serum 6 to linear peptides of protein X3 of SARS-CoV Urbani / Binding of serum 37 to linear peptides of protein X3 of SARS-CoV Urbani / Binding of serum 37 to looped/cyclic peptides of protein X3 of SARS-CoV Urbani / Binding of serum 6 to linear peptides of protein X4 of SARS-CoV Urbani / Binding of serum 37 to linear peptides of protein X4 of SARS-CoV Urbani / Binding of serum 37 to looped/cyclic peptides of protein X4 of SARS-CoV Urbani / Binding of serum 6 to linear peptides of protein X5 of SARS-CoV Urbani / Binding of serum 37 to linear peptides of protein X5 of SARS-CoV Urbani / Binding of serum 37 to looped/cyclic peptides of protein X5 of SARS-CoV Urbani / Binding of serum 6 to linear peptides of protein N of SARS-CoV Urbani / Binding of serum 37 to linear peptides of protein N of SARS-CoV Urbani / Binding of serum 6 to linear peptide (PEPSCAN-ELISA) / Binding of serum 1a to looped/cyclic peptides of protein N of SARS-CoV Urbani / Binding of serum 1b to looped/cyclic peptides of protein N of SARS-CoV Urbani / Binding of serum 2 to looped/cyclic peptides of protein N of SARS-CoV Urbani / Binding of serum 6 to looped/cyclic peptides of protein N of SARS-CoV Urbani / Binding of serum 37 to looped/cyclic peptides of protein N of SARS-CoV Urbani / Binding of serum 62 to looped/cyclic peptides of protein N of SARS-CoV Urbani / Binding of serum London to looped/cyclic peptides of protein N of SARS-CoV Urbani / Binding of serum SARS-green to looped/cyclic peptides of protein N of SARS-CoV Urbani: unit not given here
[2] = tested on: control sera (pooled serum of ten healthy LUMC hospital workers; commercial negative donor pooled serum from the Dutch bloodbank); assay type: binding, human; parameters: Binding of Control serum LUMC to linear peptides / Binding of Control serum Blood-bank to linear peptides / Binding of Control serum LUMC to looped peptides / Binding of Control Serum Blood-Bank to Looped peptides / Binding of Control serum LUMC to linear peptides of the protein M of SARS-CoV Urbani / Binding of Control serum Blood-bank to linear peptides of the protein M of SARS-CoV Urbani / Binding of Control serum LUMC to looped peptides of the protein M of SARS-CoV Urbani / Binding of Control Serum Blood-Bank to Looped peptides of the protein M of SARS-CoV Urbani: unit not given here
[3] = tested on: rabbit serum obtained by immunizing a rabbit with the SARS-CoV strain Frankfurt 1; assay type: binding; parameters: Binding of a rabbit serum to linear peptides / Binding of a rabbit serum to looped peptides / Rabbit serum linear peptides / Rabbit serum looped peptides / Binding of a rabbit serum to linear peptides of protein N of SARS-CoV Urbani (Rabbit serum linear peptides) / Binding of a rabbit serum to looped/cyclic peptides of protein N of SARS-CoV Urbani (Rabbit serum looped peptides): unit not given here
[4] = tested on: recombinant human anti-SARS-CoV antibody 03-018; assay type: binding; parameters: Binding of antibody 03-018 to linear peptides of the N protein of SARS-CoV Urbani / Binding of antibody 03-018 to looped/cyclic peptides of the N protein of SARS-CoV Urbani: unit not given here

Sequence | Binding of serum 1a to linear peptides of protein N of SARS-CoV Urbani [1] | Binding of serum 1a to looped/cyclic peptides of protein N of SARS-CoV Urbani [1] | Binding of serum 1b to linear peptides of protein N of SARS-CoV Urbani [1] | Binding of serum 1b to looped/cyclic peptides of protein N of SARS-CoV Urbani [1] | Binding of serum 2 to linear peptides of protein N of SARS-CoV Urbani [1] | Binding of serum 2 to looped/cyclic peptides of protein N of SARS-CoV Urbani [1] | Binding of serum 6 to linear peptides of protein N of SARS-CoV Urbani [1] | Binding of serum 6 to looped/cyclic peptides of protein N of SARS-CoV Urbani [1] | Binding of serum 37 to linear peptides of protein N of SARS-CoV Urbani [1] | Binding of serum 37 to looped/cyclic peptides of protein N of SARS-CoV Urbani [1] | Binding of serum 62 to linear peptides of protein N of SARS-CoV Urbani [1] | Binding of serum 62 to looped/cyclic peptides of protein N of SARS-CoV Urbani [1] | Binding of serum London to linear peptides of protein N of SARS-CoV Urbani [1] | Binding of serum London to looped/cyclic peptides of protein N of SARS-CoV Urbani [1] | Binding of serum SARS-green to linear peptides of protein N of SARS-CoV Urbani [1] | Binding of serum SARS-green to looped/cyclic peptides of protein N of SARS-CoV Urbani [1] | Binding of serum SARS-yellow to linear peptides of protein N of SARS-CoV Urbani [1] | Binding of serum SARS-yellow to looped/cyclic peptides of protein N of SARS-CoV Urbani [1] | Binding of a rabbit serum to linear peptides of protein N of SARS-CoV Urbani (Rabbit serum linear peptides) [3] | Binding of a rabbit serum to looped/cyclic peptides of protein N of SARS-CoV Urbani (Rabbit serum looped peptides) [3] | other results
ITFGGPTDSTDNNQN | 0.2 | 0.3 | 0.1 | 0.2 | 0.1 | 0.3 | 0.1 | 0.2 | 0.7 | 0.6 | 0.6 | 0.5 | 0.5 | 0.4 | 0.3 | 0.7 | 0.4 | 0.3 | 0.1 | 0.3 | Binding of Control Serum Blood-Bank to Looped peptides [2]: 0.7; Binding of Control serum Blood-bank to linear peptides [2]: 0.5; Binding of Control serum LUMC to linear peptides [2]: 0.6; Binding of Control serum LUMC to looped peptides [2]: 0.7; Recognition of the peptide by antibody 03-018 [4]: recognized
KDHIGTRNPNNNAAT | 0.3 | 0.4 | 0.2 | 0.3 | 0.4 | 0.5 | 0.3 | 0.4 | 0.9 | 0.5 | 0.8 | 0.4 | 0.5 | 0.4 | 0.5 | 0.1 | 0.8 | 0.3 | 0.1 | 0.2 | Binding of Control Serum Blood-Bank to Looped peptides [2]: 0.6; Binding of Control serum Blood-bank to linear peptides [2]: 0.9; Binding of Control serum LUMC to linear peptides [2]: 0.8; Binding of Control serum LUMC to looped peptides [2]: 0.6; Binding of antibody 03-018 to linear peptides of the N protein of SARS-CoV Urbani [4]: 0.1; Binding of antibody 03-018 to looped/cyclic peptides of the N protein of SARS-CoV Urbani [4]: 0.2
KDKKKKTDEAQPLPQ | 0.2 | 0.2 | 0.1 | 0.1 | 0.2 | 0.2 | 0.2 | 0.2 | 0.7 | 0.4 | 0.6 | 0.3 | 0.6 | 0.4 | 0.5 | 0.1 | 0.5 | 0.1 | 0.1 | 0.0 | Control Serum Blood-Bank Looped peptides [2]: 0.5; Control serum Blood-bank linear peptides [2]: 0.6; Control serum LUMC linear peptides [2]: 0.6; Control serum LUMC looped peptides [2]: 0.4; Binding of antibody 03-018 to linear peptides of the N protein of SARS-CoV Urbani [4]: 0.1; Binding of antibody 03-018 to looped/cyclic peptides of the N protein of SARS-CoV Urbani [4]: 0.2
KDNVILLNKHIDAYK | 0.3 | 0.3 | 0.2 | 0.2 | 0.3 | 0.2 | 0.3 | 0.1 | 0.7 | 0.4 | 0.8 | 0.3 | 0.6 | 0.3 | 0.4 | 0.1 | 0.8 | 0.4 | 0.2 | 0.4 | Control Serum Blood-Bank Looped peptides [2]: 0.5; Control serum Blood-bank linear peptides [2]: 0.8; Control serum LUMC linear peptides [2]: 0.7; Control serum LUMC looped peptides [2]: 0.5; Binding of antibody 03-018 to linear peptides of the N protein of SARS-CoV Urbani [4]: 0.1; Binding of antibody 03-018 to looped/cyclic peptides of the N protein of SARS-CoV Urbani [4]: 0.2
